Literature values as cited in patent publication US10406122B2 (priority 2011, dated 2019).

Key:
postoperative pain = settings: after 4 to 6 hours, IV or IM intermittent injection; cited from earlier work
[1] = test system: patients undergoing abdominal surgery; settings: within the first 90 minutes of treatment; cited from earlier work
[2] = test system: experienced opioid abusers; settings: cited from earlier work
[3] = tramadol […] [100 mg] p.o., single dose; cited from earlier work

Compound | reduction of pain intensity (postoperative pain) | responder rate (no or slight pain) [1] | ratings of feel drug effect compared to placebo ([2]; IV over 5 minutes) | ratings of liking / ARCI-MBG scale ([2]; tramadol 100 and 200 mg IV, morphine 10 and 20 mg IV, over 5 minutes) | AUC [3] | Cmax [3] | Tmax [3] | t1/2 [3]
CN1CC[C@]23c4c5ccc(O)c4O[C@H]2[C@@H](O)C=C[C@H]3[C@H]1C5 [morphine] | 69.8% | 81.2% | significantly increased ratings | significantly increased ratings |  |  |  | 
(+)-O-desmethyltramadol [(+)-M1] |  |  |  |  | 1258 ± 410 ng·h/mL | 147 ± 39 ng/mL | 1.6 ± 0.5 h | 6.0 ± 1.0 h
